The results in this text go back to patent publication US10526316B2, “Quinoxaline and pyridopyrazine derivatives as PI3Kβ inhibitors” (Janssen Pharmaceutica NV, priority 2015, dated 2020).

Like-named read-outs stand apart in the source and are kept apart here. Bounds are passed on as bounds.

The subject of series [1] is Akt phosphorylated at Thr308 in PC-3 cells. Briefly: Cellular assay: phosphorylation of Akt at Thr308 in PC-3 cells (MSD ELISA). The format is cell-based. The note with it: PC-3 cells, 60 min compound incubation, MSD ELISA, read-out: IC50 pAkt_Thr308. An outline of the steps: (§1)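 Phospho-Akt in whole-cell lysates is quantified by electrochemiluminescent immunoassay using phospho-site capture and total-Akt detection antibodies.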
On the technique in general: In an ELISA, binding on a coated surface is turned into a signal by an enzyme label.

A further series deals with T1, PI3Kδ (Homo sapiens, UniProt O00329).
T1 construct: purchased DiscoveRx Corporation, San Diego (contract service, KINOMEscan)
T1 sequence (O00329 1-1044): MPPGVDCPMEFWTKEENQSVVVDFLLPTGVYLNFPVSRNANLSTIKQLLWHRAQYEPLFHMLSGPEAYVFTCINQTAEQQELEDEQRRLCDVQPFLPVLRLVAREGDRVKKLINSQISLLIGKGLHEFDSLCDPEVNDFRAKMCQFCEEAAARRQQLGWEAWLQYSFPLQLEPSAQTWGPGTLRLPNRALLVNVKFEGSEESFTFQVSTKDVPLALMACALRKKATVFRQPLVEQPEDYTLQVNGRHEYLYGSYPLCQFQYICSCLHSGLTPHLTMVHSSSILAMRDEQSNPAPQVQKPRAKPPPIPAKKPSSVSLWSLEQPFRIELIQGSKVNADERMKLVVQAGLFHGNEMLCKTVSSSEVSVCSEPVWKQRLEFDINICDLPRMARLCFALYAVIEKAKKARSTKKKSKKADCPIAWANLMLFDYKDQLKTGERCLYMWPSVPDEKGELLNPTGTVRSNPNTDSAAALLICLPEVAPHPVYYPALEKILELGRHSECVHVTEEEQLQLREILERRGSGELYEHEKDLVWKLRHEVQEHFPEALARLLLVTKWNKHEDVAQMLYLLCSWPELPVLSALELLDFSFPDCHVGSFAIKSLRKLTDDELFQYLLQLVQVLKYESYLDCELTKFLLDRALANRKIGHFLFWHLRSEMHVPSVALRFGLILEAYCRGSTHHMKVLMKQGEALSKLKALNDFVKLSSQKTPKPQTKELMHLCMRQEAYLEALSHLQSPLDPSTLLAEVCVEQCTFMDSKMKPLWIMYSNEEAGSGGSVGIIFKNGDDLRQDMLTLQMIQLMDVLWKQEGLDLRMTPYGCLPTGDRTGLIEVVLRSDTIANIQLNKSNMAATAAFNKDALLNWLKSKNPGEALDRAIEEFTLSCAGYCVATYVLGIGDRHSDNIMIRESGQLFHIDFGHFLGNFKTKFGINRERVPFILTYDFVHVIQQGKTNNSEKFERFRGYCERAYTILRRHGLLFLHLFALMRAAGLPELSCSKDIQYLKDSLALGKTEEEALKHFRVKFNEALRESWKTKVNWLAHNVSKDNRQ
Description: Enzyme binding assay (KINOMEscan, DiscoveRx). The following applies: PIK3Cδ_h. The gist of the method: (§2)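 Affinity for each kinase was determined by KINOMEscan profiling.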

Series [2] has as its target T2, kinase enzymes (Homo sapiens, UniProt P48736).
T2 construct: purchased DiscoveRx Corporation, San Diego (contract service, KINOMEscan)
Briefly: Enzyme binding assay (KINOMEscan, DiscoveRx), further kinases of Table A. The note with it: PIK3Cγ_h. An outline of the steps:
as §2

Series [3] deals with T3, kinase enzymes (Homo sapiens, UniProt P42336).
T3 construct: purchased DiscoveRx Corporation, San Diego (contract service, KINOMEscan)
T3 sequence (P42336 whole entry): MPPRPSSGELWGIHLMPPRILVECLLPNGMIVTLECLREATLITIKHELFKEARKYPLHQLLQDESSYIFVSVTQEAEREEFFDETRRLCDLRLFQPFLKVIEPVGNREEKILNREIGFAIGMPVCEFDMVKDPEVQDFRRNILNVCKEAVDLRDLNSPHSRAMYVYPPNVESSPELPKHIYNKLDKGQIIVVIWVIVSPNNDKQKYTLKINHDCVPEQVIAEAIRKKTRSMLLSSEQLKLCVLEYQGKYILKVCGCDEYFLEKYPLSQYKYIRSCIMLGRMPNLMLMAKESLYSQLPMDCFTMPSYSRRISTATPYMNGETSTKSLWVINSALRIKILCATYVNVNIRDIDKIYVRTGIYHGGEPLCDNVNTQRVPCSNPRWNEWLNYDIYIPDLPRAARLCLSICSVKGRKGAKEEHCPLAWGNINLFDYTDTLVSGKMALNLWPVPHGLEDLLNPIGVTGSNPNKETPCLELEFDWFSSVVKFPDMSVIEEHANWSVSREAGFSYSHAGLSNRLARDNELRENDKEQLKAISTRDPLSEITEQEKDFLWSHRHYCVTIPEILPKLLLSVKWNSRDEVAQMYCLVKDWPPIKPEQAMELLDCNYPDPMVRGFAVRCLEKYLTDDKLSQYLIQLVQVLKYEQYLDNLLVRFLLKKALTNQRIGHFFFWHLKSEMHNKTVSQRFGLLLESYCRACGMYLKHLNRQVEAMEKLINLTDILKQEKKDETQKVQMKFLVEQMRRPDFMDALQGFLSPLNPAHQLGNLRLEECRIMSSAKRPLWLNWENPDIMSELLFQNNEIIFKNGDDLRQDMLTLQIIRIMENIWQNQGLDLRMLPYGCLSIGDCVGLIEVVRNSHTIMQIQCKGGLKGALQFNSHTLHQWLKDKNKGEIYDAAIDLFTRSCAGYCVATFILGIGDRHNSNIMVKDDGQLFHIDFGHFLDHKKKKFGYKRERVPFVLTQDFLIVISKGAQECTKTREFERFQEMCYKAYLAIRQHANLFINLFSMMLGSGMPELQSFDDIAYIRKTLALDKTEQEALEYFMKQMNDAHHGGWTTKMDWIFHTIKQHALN
Described as above. The following applies: PIK3Cα_h. The gist of the method:
as §2

The target in series [4] is T4, kinase enzymes (Homo sapiens, UniProt P42345).
T4 construct: purchased DiscoveRx Corporation, San Diego (contract service, KINOMEscan)
Described as above. The following applies: MTOR_h. The gist of the method:
as §2

For series [5], the system named is Akt phosphorylated at Ser473 in PC-3 cells. Description: Cellular assay: phosphorylation of Akt at Ser473 in PC-3 cells (MSD ELISA). The format is cell-based. The following applies: PC-3 cells, 60 min compound incubation, MSD ELISA, read-out: IC50 pAkt_S473. The gist of the method:
as §1

In another series the target is T5, PI3Kβ (Homo sapiens, UniProt P42338).
T5 construct: purchased DiscoveRx Corporation, San Diego (contract service, KINOMEscan)
T5 sequence (P42338 whole entry): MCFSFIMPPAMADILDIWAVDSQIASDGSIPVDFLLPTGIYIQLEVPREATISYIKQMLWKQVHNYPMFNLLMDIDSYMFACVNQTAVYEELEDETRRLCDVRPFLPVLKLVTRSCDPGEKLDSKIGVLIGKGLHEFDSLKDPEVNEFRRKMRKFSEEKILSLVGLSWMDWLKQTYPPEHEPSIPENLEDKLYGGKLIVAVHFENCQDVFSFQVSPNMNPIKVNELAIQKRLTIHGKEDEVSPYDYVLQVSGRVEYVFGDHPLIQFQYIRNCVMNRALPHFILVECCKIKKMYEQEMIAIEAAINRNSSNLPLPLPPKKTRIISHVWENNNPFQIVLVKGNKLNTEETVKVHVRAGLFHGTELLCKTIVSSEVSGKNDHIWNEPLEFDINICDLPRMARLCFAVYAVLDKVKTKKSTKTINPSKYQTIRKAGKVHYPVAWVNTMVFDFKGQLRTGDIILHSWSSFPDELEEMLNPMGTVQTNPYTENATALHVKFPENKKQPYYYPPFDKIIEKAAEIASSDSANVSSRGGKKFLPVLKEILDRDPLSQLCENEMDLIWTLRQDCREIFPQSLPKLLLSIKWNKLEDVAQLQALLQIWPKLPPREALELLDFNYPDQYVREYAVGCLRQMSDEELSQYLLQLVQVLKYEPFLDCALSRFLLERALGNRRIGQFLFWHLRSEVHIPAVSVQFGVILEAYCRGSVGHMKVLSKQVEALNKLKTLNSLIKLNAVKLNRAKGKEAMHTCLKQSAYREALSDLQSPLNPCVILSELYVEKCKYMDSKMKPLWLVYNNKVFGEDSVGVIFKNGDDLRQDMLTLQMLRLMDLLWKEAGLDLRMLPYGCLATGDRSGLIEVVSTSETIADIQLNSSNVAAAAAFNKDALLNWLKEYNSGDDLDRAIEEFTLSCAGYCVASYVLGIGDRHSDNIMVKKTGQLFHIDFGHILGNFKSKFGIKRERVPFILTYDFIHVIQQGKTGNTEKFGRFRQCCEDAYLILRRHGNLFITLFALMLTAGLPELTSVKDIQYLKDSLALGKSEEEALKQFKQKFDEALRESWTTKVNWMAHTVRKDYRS
Description: Enzyme binding assay (KINOMEscan, DiscoveRx). The following applies: PIK3Cβ_h, read-out: Kd PIK3Cβ_h. An outline of the steps: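 Values are Kd in nM, the binding constant of each inhibitor for the kinase, obtained from a KINOMEscan enzyme binding assay.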

The IC50 is the point on the concentration scale where inhibition reaches its midpoint. For orientation: Kd means the equilibrium constant for the complex coming apart. By melting point is commonly meant the temperature, or range, at which the solid turns liquid.

T2 sequence (P48736 whole entry): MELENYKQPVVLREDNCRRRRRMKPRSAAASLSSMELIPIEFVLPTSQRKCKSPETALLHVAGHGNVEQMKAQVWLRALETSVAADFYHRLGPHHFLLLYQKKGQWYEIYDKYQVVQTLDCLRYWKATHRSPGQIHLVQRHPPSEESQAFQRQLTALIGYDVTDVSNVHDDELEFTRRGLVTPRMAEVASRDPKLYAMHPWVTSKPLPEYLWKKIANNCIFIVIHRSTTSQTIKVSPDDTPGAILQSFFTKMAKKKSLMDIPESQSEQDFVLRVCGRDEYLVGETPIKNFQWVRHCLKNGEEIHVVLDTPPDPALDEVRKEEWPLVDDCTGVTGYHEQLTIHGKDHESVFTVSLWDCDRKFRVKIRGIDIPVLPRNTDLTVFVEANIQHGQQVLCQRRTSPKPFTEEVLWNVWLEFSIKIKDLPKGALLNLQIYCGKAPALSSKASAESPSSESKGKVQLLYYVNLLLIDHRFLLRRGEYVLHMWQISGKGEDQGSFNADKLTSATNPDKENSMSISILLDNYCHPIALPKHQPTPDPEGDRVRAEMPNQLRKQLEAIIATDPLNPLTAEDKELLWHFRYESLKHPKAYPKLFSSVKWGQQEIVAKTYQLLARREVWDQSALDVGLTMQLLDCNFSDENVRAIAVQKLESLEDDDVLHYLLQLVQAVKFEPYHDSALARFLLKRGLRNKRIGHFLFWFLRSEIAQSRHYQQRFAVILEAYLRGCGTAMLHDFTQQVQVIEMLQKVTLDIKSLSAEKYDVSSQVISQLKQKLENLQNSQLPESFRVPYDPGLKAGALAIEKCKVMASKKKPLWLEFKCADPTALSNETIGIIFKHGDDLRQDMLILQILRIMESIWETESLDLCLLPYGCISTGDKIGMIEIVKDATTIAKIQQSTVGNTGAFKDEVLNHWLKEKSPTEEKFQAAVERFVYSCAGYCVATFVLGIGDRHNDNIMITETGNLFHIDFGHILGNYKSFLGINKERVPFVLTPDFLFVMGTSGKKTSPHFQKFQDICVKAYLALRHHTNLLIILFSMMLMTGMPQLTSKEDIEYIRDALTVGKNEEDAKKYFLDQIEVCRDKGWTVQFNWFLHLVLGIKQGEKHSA

Consider `CNCCNC(=O)c1cc([C@@H](C)Oc2cccc(F)c2)c2nc(N3CCOCC3)cnc2c1` [Compound 122a], for which the melting point was 116 °C. For the same molecule, the concentration for half-maximal inhibition (IC50) in series [1] is 9 nM. On PI3Kδ, this molecule had a Kd of 660 nM. At kinase enzymes [2], the Kd turned out to be 7.97 µM. This molecule also returned a Kd at kinase enzymes [3] of 3.7 µM. For the same molecule, the Kd at kinase enzymes [4] amounted to 14.1 µM. For the same molecule, the IC50 in series [5] worked out at 12 nM. Besides, the dissociation constant Kd on PI3Kβ came to 3 nM.

The molecule `CNCCNC(=O)c1cc([C@H](C)Oc2cccc(F)c2)c2nc(N3CCOCC3)cnc2c1` [Compound 123a] gave a melting point of 130 °C. In addition, the IC50 in series [1] was 380 nM. The molecule further yielded a Kd at PI3Kδ of 5130 nM. This molecule also had a dissociation constant Kd at kinase enzymes [2] of 11.5 µM. The molecule also registered a Kd at kinase enzymes [3] of 10.2 µM. At kinase enzymes [4], this molecule registered a dissociation constant (Kd) of 17 µM. Also, the IC50 in series [5] is above 513 nM. Moreover, the Kd at PI3Kβ was 107 nM.

In the case of `CC(Nc1cccc(Br)c1)c1cc(C(=O)N2CCOCC2)cc2ncc(N3CCOCC3)nc12` (stereo not drawn) [Compound 124], the melting point worked out at 80 °C. The IC50 in series [1] (Homo sapiens, PC-3, 1 h) stood at 93 nM. For the same molecule, the Kd at PI3Kδ came to 575 nM. Binding at kinase enzymes [2] was put at a Kd of 7.76 µM. Further, on kinase enzymes [3], the Kd was 1.07 µM. On kinase enzymes [4], this molecule returned a Kd of 8.13 µM. In addition, in series [5] (Homo sapiens, PC-3, 1 h), the IC50 worked out at 151 nM. The dissociation constant Kd at PI3Kβ stood at 4 nM.

In turn, `CCc1cccc(NC(C)c2cc(C(=O)N3CCOCC3)cc3ncc(N4CCOCC4)nc23)c1` (stereo not drawn) [Compound 125] displayed a melting point of 80 °C. Besides, in series [1] (Homo sapiens, PC-3, 1 h), the IC50 was above 513 nM. The same molecule displayed a dissociation constant Kd at PI3Kδ of 5890 nM. The same molecule registered a Kd on kinase enzymes [2] above 30.2 µM. This molecule displayed a dissociation constant Kd on kinase enzymes [3] of 6.46 µM. The molecule further displayed a dissociation constant (Kd) at kinase enzymes [4] above 30.2 µM. Further, the IC50 in series [5] (Homo sapiens, PC-3, 1 h) is above 513 nM. Further, the Kd at PI3Kβ was determined as 68 nM.

In the case of `Cc1cc(C)cc(NC(C)c2cc(C(=O)N3CCOCC3)cc3ncc(N4CCOCC4)nc23)c1` (stereo not drawn) [Compound 126], the melting point was determined as 80 °C. Moreover, in series [1] (Homo sapiens, PC-3, 1 h), the IC50 worked out at 275 nM. In addition, the Kd on PI3Kδ turned out to be 1290 nM. Moreover, the Kd at kinase enzymes [2] was above 30.2 µM. In addition, the Kd at kinase enzymes [3] amounted to 6.92 µM. This molecule also registered a Kd at kinase enzymes [4] above 30.2 µM. Further, the IC50 in series [5] (Homo sapiens, PC-3, 1 h) worked out at 427 nM. Besides, the Kd on PI3Kβ is 13 nM.

Consider `CC(c1cc(C(=O)N2CCOCC2)cc2ncc(N3CCOCC3)nc12)N(CCO)c1cc(F)cc(F)c1` (stereo not drawn) [Compound 129], for which the melting point worked out at 80 °C. Moreover, the IC50 in series [1] (Homo sapiens, PC-3, 1 h) was determined as 105 nM. On PI3Kδ, binding was put at a Kd of 1070 nM. Also, at kinase enzymes [2], the Kd turned out to be 8.91 µM. On kinase enzymes [3], this molecule yielded a Kd of 1.78 µM. The same molecule had a Kd at kinase enzymes [4] of 9.77 µM. Moreover, the IC50 in series [5] (Homo sapiens, PC-3, 1 h) is 112 nM. Besides, at PI3Kβ, the Kd is 3 nM.

As to `CNCCNC(=O)c1cc(C(C)N(C)c2cccc(F)c2)c2nc(N3CCOCC3)cnc2c1` (stereo not drawn) [Compound 130], the melting point came to 159 °C. Moreover, in series [1] (Homo sapiens, PC-3, 1 h), the IC50 was found to be 65 nM. This molecule also came in with an equilibrium dissociation constant (Kd) at PI3Kδ of 135 nM. For the same molecule, binding at kinase enzymes [2] was characterised by a dissociation constant (Kd) of 0.24 µM. Moreover, the Kd on kinase enzymes [3] came out at 0.363 µM. Moreover, on kinase enzymes [4], the Kd worked out at 6.17 µM. The IC50 in series [5] (Homo sapiens, PC-3, 1 h) was determined as 89 nM. Besides, the Kd on PI3Kβ is 0.5 nM.

In turn, `CC(Nc1cccc(C#N)c1)c1cc(C(=O)N2CCOCC2)cc2ncc(N3CCOCC3)nc12` (stereo not drawn) [Compound 131] displayed a melting point of 80 °C. Moreover, in series [1] (Homo sapiens, PC-3, 1 h), the IC50 was determined as 363 nM. Moreover, the affinity on PI3Kδ, expressed as Kd, was 2510 nM. On kinase enzymes [2], this molecule displayed a Kd of 20 µM. At kinase enzymes [3], this molecule showed a Kd of 3.16 µM. At kinase enzymes [4], this molecule had a Kd above 30.2 µM. In series [5] (Homo sapiens, PC-3, 1 h), the IC50 stood at 501 nM. For the same molecule, the Kd on PI3Kβ was found to be 11 nM.

For `CNCCNC(=O)c1cc(C(C)Nc2cc(F)ccc2F)c2nc(N3CCOCC3)cnc2c1` (stereo not drawn) [Compound 132], the melting point stood at 80 °C. Further, the IC50 in series [1] (Homo sapiens, PC-3, 1 h) was 37 nM. Further, the Kd on PI3Kδ was found to be 115 nM. Besides, on kinase enzymes [2], the Kd is 2.19 µM. Moreover, the Kd at kinase enzymes [3] stood at 0.832 µM. This molecule also had a Kd at kinase enzymes [4] of 11.5 µM. Besides, the IC50 in series [5] (Homo sapiens, PC-3, 1 h) came to 52 nM. Further, the Kd on PI3Kβ was 0.5 nM.
